Experimental data published in patent US10330672B2, “Method for screening activator of mitochondrial activity” (INTELLIGENT SYNTHETIC BIOLOGY CENTER, priority 2015, dated 2019).

How the values were obtained:
INS-1 cells [1] = experiment: Intracellular ATP amount by luciferase assay in INS-1 cells; type: cell-based; settings: 10 μM, 2 hours, vs DMSO control
Description: (§1) Initially, the INS-1 cells, which are insulin-secreting cells, were cultured in a cell incubator (37° C., 5% CO2, RPMI medium, 10% FBS), were treated with 10 μM of gypenoside 75, ginsenoside F1, ginsenoside Rg3, ginsenoside Rb2, or ginsenoside Rb3 for 2 hours, and the intracellular ATP amount and mitochondrial membrane potential were measured. For the control group, cells treated with DMSO were used.
Next, the amount of ATP was measured using luciferase. As the fluorescence by activation of luciferase depends on the amount of ATP, the intracellular ATP amount can be measured by measuring the level of the fluorescence emission.
Specifically, the INS-1 cells treated with each of the above materials were lysed through freezing-thawing and ultrasonication treatments to obtain a cell lysate. Luciferase and luciferin were added to the obtained cell lysate above to induce fluorescence, and the levels of the fluorescence were quantified and compared (FIG. 1).

INS-1 cells [2] = experiment: Mitochondrial membrane potential by TMRM staining and FACS in INS-1 cells; type: cell-based; settings: 10 μM, 2 hours, TMRM staining, vs DMSO control
Description: as §1
In the final stage, the mitochondrial membrane potential was measured by tetramethylrhodamine methyl ester (TMRM) staining. As the level of the TMRM staining increases proportionately to the mitochondrial membrane potential, the intracellular mitochondrial membrane potential can be measured by measuring the level of the TMRM staining.
Specifically, the INS-1 cells treated with each of the above materials were stained with TMRM, and applied to fluorescence-activated cell sorting (FACS). Then, the level of the staining was quantified, analyzed, and compared (FIG. 2).

CC(C)=CCC[C@](C)(O[C@@H]1O[C@H](CO[C@@H]2O[C@H](CO)[C@@H](O)[C@H](O)[C@H]2O)[C@@H](O)[C@H](O)[C@H]1O)[C@H]1CC[C@]2(C)[C@@H]1[C@H](O)C[C@@H]1[C@@]3(C)CC[C@H](O)C(C)(C)[C@@H]3CC[C@]12C [gypenoside 75]
increase of intracellular ATP amount compared with the control group (INS-1 cells [1]): 50% | increase of intracellular mitochondrial membrane potential compared with the control group (INS-1 cells [2]): 40%
